Experimental data reported in article PMC10824102, “Identification of small molecule inhibitors of G3BP-driven stress granule formation” (The Journal of Cell Biology, 2024).

Tests used:
[1] = test system: stress granule formation in U2OS cells stably expressing G3BP1-GFP; test: Preincubation, heat shock-induced stress granule formation in U2OS; assay type: cell-based; conditions: 50 μM, 20 min pretreatment, 43°C heat shock, 15 min post heat shock
Description: (§1) For preincubation of compounds, U2OS or HeLa cells stably expressing G3BP1-GFP or CRISPR-modified cells expressing TDP-43-GFP/G3BP1-GFP were seeded into eight-well Lab-Tek chambered cover glass (Nunc). At least 20 min prior to the experiment, 1 ml FluoroBrite DMEM media (Gibco) supplemented with 10% FBS and 4 mM L-glutamine was combined with 0.1% DMSO or G3I compound (5, 10, or 50 μM). This solution was vortexed for 5 s, added to the cells at 250 μl per well, and left to incubate on the microscope for 20 min. Conditions were maintained at 37°C and 5% CO2 using a Bold Line Cage Incubator (Okolab) and an objective heater (Bioptechs). During this incubation time, 5 xy fields were stored per condition, with each field having ∼20–30 cells within it. After the 20-min incubation, 250 μl of 500 μM or 1 mM (2×) sodium arsenite (Sigma-Aldrich) diluted in the FluoroBrite media with an appropriate amount of G3I compound or DMSO was added to the sample. Imaging began immediately after, with images at each xy field being taken every 1 min. For heat shock experiments, U2OS G3BP1-GFP-expressing cells were seeded into a 35-mm glass bottom dish (MatTek). Prior to the experiment, 1.5 ml FluoroBrite DMEM media (Gibco) supplemented with 10% FBS and 4 mM L-glutamine was combined with 0.1% DMSO or 50 μM G3I compound. The sample was incubated on the environmentally controlled microscope for 20 min. […]

[2] = test system: stress granule formation in HeLa cells stably expressing G3BP1-GFP; test: Preincubation, arsenite-induced stress granule formation, live cell imaging in HeLa; assay type: cell-based; conditions: Homo sapiens, 20 min pretreatment, 250 μM NaAsO2, read-out: inhibition of stress granule formation compared with inactive enantiomer
Description: as §1

[3] = target: T1, interaction between G3BP1 and endogenous USP10 (Homo sapiens, UniProt Q13283); test: Coimmunoprecipitation of G3BP1-GFP with endogenous USP10 in U2OS lysates; assay type: biochemical; conditions: increasing concentrations added to U2OS G3BP1-GFP lysates, GFP IP
T1 construct: expressed in transfected cells; host or cells: U2OS cells stably expressing G3BP1-GFP (lysate)
T1 sequence (Q13283 whole entry): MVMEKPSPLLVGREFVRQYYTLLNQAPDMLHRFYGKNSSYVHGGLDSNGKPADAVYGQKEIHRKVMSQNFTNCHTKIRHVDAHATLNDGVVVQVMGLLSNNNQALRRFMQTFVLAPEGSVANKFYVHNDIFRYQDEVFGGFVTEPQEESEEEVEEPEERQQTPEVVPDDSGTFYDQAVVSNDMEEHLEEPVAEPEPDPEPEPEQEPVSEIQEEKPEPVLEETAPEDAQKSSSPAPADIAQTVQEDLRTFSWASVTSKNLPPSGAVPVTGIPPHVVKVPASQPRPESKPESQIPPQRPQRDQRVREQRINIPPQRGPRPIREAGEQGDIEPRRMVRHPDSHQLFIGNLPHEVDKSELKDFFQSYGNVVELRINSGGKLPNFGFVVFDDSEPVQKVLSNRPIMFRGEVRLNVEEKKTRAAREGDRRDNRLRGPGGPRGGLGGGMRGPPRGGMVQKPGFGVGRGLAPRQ
Description: U2OS cells expressing G3BP1-GFP were grown in 3-cm dishes to 100% confluency, at which point cells were collected and pelleted at 400 × g for 5 min. Pellets were either stored at −80°C or processed the same day by lysing with 200 μl in vivo lysis buffer (150 mM NaCl, 50 mM Tris [pH 7.5], 1 mM EDTA, 0.5% NP-40, and 10% glycerol, supplemented with 1 protease inhibitor tablet [11836170001; Roche]). Lysates were centrifuged at 13,000 × g at 4°C for 15 min, after which supernatants were transferred to a new tube and diluted with 200 μl lysis buffer containing indicated concentrations of G3I compounds. The mixture was then incubated with GFP-Trap (ChromoTek GFP-Trap Magnetic Agarose; Proteintech; gtma) for 2 h at 4°C. Beads were washed three times with lysis buffer, then incubated with 1× SDS sample buffer supplemented with 10% 2-mercaptoethanol, and boiled for 5 min at 95°C. Lysates were subjected to SDS-PAGE and then immunoblotted.
Samples were separated by SDS-PAGE and transferred to membranes. […] Membranes were visualized and quantified with an Odyssey Fc imaging system (LI-COR) and normalized to the amount of G3BP1 immunoprecipitated.

COCCC(NC(=O)C(C)NC(=O)C(NC(=O)C(NC(=O)C(F)CC(C)(C)C)C(C)(C)O)C(C)c1ccccc1)C(=O)N(C)Cc1ccccc1 (stereo not drawn) [G3Ia]
reduction of stress granule formation compared with inactive enantiomer [1]: ~79%
inhibition at 50 µM [2]: ~72%

CC(NC(=O)C(NC(=O)C(NC(=O)CCC(C)(C)C)C(C)(C)O)C(C)c1ccccc1)C(=O)N1CCCC1c1ccccc1 (stereo not drawn) [G3Ib]
reduction of stress granule formation compared with inactive enantiomer [1]: ~82%
interaction between G3BP1 and endogenous USP10 [3]: dose-dependent reduction
inhibition at 50 µM [2]: ~82%

CC(NC(=O)C(NC(=O)C(NC(=O)CCC(C)(C)C)C(C)(C)O)C(C)c1ccccc1)C(=O)N1CCCC1c1ccccc1 (stereo not drawn) [G3Ib′]
interaction between G3BP1 and endogenous USP10 [3]: no such effect
